Experimental findings from paper PMC6658998, “Pharmacological characterization of the seven human NOX isoforms and their inhibitors” (Redox Biology, 2019) are described below.

Holding throughout (assay type): cell-based
The target in assay [1] is T1, NOX2 (Homo sapiens, UniProt P04839).
T1 sequence (P04839 2-570 limits assumed): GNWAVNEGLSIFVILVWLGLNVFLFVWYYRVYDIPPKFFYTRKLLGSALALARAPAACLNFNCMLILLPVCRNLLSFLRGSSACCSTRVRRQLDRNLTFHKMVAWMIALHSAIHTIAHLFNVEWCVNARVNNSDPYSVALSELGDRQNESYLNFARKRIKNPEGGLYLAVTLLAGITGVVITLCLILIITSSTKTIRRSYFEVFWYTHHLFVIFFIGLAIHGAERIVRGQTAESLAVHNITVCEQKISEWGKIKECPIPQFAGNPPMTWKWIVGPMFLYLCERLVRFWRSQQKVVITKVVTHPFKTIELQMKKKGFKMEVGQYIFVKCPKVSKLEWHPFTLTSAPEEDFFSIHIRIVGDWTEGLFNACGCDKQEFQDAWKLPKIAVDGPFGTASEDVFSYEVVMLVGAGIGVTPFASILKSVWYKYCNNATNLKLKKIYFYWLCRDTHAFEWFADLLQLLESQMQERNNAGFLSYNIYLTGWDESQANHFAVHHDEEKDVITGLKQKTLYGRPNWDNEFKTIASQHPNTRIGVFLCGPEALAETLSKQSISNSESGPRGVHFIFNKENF
T1 sequence (P13498 1-195 partner): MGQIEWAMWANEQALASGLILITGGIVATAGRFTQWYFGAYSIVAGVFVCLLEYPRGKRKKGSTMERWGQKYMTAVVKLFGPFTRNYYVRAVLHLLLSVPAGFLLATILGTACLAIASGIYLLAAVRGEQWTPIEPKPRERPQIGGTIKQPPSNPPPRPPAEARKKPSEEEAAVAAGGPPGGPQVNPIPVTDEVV
Nature of the assay: NOX2-dependent oxygen consumption in PMA-activated human neutrophils (Seahorse). As to conditions: 100 nM PMA. On the procedure: Human polymorphonuclear leukocytes (PMN) were isolated from fresh whole blood collected from healthy volunteers as described. Briefly, 32 mL blood was collected in 8 mL sodium citrate (3.8%) and blood cells sedimented for 40 min with dextran T500 (4% in NaCl 0.9%). The upper yellowish fraction containing leukocytes was collected and centrifugated at 380×g for 10 min. Pellets were resuspended in PBS and separated using Ficoll Plaque™ Plus (450 ×g , with no brake) for 15 min, RT. Red blood cells were lysed by addition of 5 mL H2O for 30 s followed by addition of 5 mL NaCl 1.8%. Remaining PMN were collected by centrifugation for 10 min at 250 ×g , washed and resuspended in HBSS, counted and kept on ice for a maximum of 30 min until they were used for oxygen consumption measurement.
Oxygen consumption was determined using human neutrophils and NOX4 T-Rex HEK293 cells using the Seahorse XF24 Extracellular Flux Analyzer. Neutrophils were plated in 24-well microplates (250,000 cells/well in 200 μL HBSS) and incubated at room temperature for 15 min for attachment. The medium was changed to DMEM without sodium bicarbonate containing 10 mM Hepes prewarmed to 37 °C, and the cells were incubated for 30 min at 37 °C in a non-CO2 incubator. Basal oxygen consumption was recorded for 8 min followed by addition of compounds and 8 min preincubation. PMA (100 nM) was added where indicated and the oxygen consumption rate was determined for two cycles of 8 min each. The signal obtained from neutrophils without PMA treatment was subtracted as a blank, while the signal obtained from PMA + DMSO-treated neutrophils was considered as 100%.

The target of assay [2] is T2, NOX3 (Homo sapiens, UniProt Q9HBY0).
T2 sequence (Q9HBY0 1-568): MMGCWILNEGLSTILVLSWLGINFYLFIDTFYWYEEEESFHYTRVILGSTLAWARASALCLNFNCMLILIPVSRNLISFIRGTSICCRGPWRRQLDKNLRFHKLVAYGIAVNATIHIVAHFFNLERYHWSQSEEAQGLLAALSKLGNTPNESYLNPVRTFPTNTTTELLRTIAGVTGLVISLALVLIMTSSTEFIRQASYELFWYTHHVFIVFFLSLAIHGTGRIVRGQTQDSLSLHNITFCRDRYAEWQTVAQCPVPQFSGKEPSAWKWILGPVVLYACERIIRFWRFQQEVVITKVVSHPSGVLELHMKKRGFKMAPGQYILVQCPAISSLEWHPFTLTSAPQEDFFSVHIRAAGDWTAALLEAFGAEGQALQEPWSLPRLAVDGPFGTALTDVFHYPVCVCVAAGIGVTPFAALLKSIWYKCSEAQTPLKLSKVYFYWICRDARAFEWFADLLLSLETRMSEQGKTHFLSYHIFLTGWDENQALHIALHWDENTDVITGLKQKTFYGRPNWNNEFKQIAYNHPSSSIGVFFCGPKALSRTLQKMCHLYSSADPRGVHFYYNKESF
T2 sequence (P13498 1-195 partner): T1 sequence (P13498 1-195 partner)
T2 sequence (Q8NFA2 1-376 partner): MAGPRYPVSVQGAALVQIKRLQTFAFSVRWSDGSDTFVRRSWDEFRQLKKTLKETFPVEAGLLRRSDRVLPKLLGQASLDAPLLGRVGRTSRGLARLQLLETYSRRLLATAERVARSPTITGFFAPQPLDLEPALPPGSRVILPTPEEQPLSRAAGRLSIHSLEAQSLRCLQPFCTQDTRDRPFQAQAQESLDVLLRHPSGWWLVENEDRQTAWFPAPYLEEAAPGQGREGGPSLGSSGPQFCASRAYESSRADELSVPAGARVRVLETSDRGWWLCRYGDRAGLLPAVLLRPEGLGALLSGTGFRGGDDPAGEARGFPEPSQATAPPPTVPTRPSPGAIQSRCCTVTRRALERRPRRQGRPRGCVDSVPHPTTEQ
Nature of the assay: Amplex Red/HRP H2O2 detection in tetracycline-induced NOX3 HEK293 T-REx cells. An excerpt: (§1) Compounds were dispensed prior addition of cells.

Assay [3] concerns the target T2, NOX3. Nature of the assay: WST-1 O2•- detection in tetracycline-induced NOX3 HEK293 T-REx cells.
From the text: as §1

The mark [4] stands for this setting: Amplex red/HRP, tetracycline 1 μg/mL 24 h, read-out: IC50 NOX3 (T-REx) AR.
[5] abbreviates: WST-1, tetracycline 1 μg/mL 24 h, read-out: IC50 NOX3 (T-REx) WST-1.

Bounds are passed on as bounds.

For `COc1cc(C(C)=O)ccc1O` [Apocynin, apocynin], in assay [1] (compound 300 μM), the “Inhibition of NOX2-dependent oxygen consumption” value (“Inhibition” below) is given as “only weakly”. Moreover, the IC50 in assay [2] (setting [4]) and in assay [3] (setting [5]) was more than 50 µM each time.
`COc1cc(C(C)=O)cc(-c2cc(C(C)=O)cc(OC)c2O)c1O` [Diapocynin, diapocynin]: the “Inhibition” value in assay [1] (compound 50 μM) is on record as “only weakly”. For the same compound, the IC50 in assay [2] (setting [4]) and in assay [3] (setting [5]) was more than 50 µM in each case.
With `O=c1c2ccccc2[se]n1-c1ccccc1` [Ebselen, ebselen], the “Inhibition” value in assay [1] (concentration not given) was “inhibited”. For the same compound, the IC50 turned out to be 2.9 µM in assay [2] (setting [4]) and 35 µM in assay [3] (setting [5]).
Consider `c1ccc2c(c1)[I+]c1ccccc1-2` [DPI, diphenylene iodonium chloride], for which, in assay [1] (concentration not given), the “Inhibition” value is recorded as “inhibited”. The IC50 in assay [2] is 2.2 µM; in assay [3], 0.2 µM.
Turning to `c1ccc(Cn2nnc3c(Sc4nc5ccccc5o4)ncnc32)cc1` [VAS2870, 3-benzyl-7-(2-benzoxazolyl)thio-1,2,3-triazolo[4,5-d]pyrimidine], the “Inhibition” value in assay [1] (concentration not given) was “inhibited”. Moreover, the IC50 in assay [2] (setting [4]) and in assay [3] (setting [5]) was more than 50 µM in each case.
For `Cc1c2c(=O)n(-c3ccccc3Cl)[nH]c2cc(=O)n1Cc1ccccn1` [GKT136901], in assay [1] (compound 50 μM), the “Inhibition” value was “not”. Further, the IC50 in assay [2] (setting [4]) was 5.7 µM; in assay [3] (setting [5]), more than 50 µM.
